Test results reported in patent publication US10787452B2 (Vertex Pharmaceuticals Incorporated, priority 2012, dated 2020).

Test system: HCT116 colorectal cancer cells
Test: Cisplatin sensitization assay (96 h cell viability MTS);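 note: compound concentration needed to lower the Cisplatin-alone IC50 by a set fold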
Type: cell-based
Conditions: 96 h MTS, compound plus Cisplatin
Summary of the method: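 Viability is measured with MTS reagent, added after 96 h and developed for 1 h at 37° C. Beforehand, cells receive compound and cisplatin simultaneously in a concentration matrix of 2-fold serial dilutions starting at 10 μM final.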

Structure (SMILES)	Cisplatin Sensitization Assay
Nc1nn2cc(F)cnc2c1C(=O)Nc1cnccc1OC1CC[S+]([O-])CC1 (centres unmarked) [I-O-44, 2-amino-6-fluoro-N-(4-((1-oxidotetrahydro-2H-thiopyran-4-yl)oxy)pyridin-3-yl)pyrazolo[1,5-a]pyrimidine-3-carboxamide]	++ (Compounds with a Cisplatin sensitization value >0.02 μM but <0.2 μM are marked with “++.”)
Nc1nn2cc(F)cnc2c1C(=O)Nc1cnccc1OC1CCS(=O)(=O)CC1 [I-O-45, 2-amino-N-(4-((1,1-dioxidotetrahydro-2H-thiopyran-4-yl)oxy)pyridin-3-yl)-6-fluoropyrazolo[1,5-a]pyrimidine-3-carboxamide]	+++ (Compounds with a Cisplatin sensitization value of <0.02 μM are marked with “+++.”)
CN1CCC(Oc2c(Cl)cncc2NC(=O)c2c(N)nn3cc(Cl)cnc23)CC1 [I-O-46, 2-amino-6-chloro-N-(5-chloro-4-((1-methylpiperidin-4-yl)oxy)pyridin-3-yl)pyrazolo[1,5-a]pyrimidine-3-carboxamide]	+ (Compounds with a Cisplatin sensitization value >0.2 μM but <5 μM are marked with “+.”)
CN(C)CCOCCOc1ccncc1NC(=O)c1c(N)nn2cc(Cl)cnc12 [I-O-47, 2-amino-6-chloro-N-(4-(2-(2-(dimethylamino)ethoxy)ethoxy)pyridin-3-yl)pyrazolo[1,5-a]pyrimidine-3-carboxamide]	+ (Compounds with a Cisplatin sensitization value >0.2 μM but <5 μM are marked with “+.”)
CN(C)CCOc1ccncc1NC(=O)c1c(N)nn2cc(Cl)cnc12 [I-O-48, 2-amino-6-chloro-N-(4-(2-(dimethylamino)ethoxy)pyridin-3-yl)pyrazolo[1,5-a]pyrimidine-3-carboxamide]	++ (Compounds with a Cisplatin sensitization value >0.02 μM but <0.2 μM are marked with “++.”)
CN1CCC[C@@H]1COc1ccncc1NC(=O)c1c(N)nn2cc(Cl)cnc12 [I-O-49, (R)-2-amino-6-chloro-N-(4-((1-methylpyrrolidin-2-yl)methoxy)pyridin-3-yl)pyrazolo[1,5-a]pyrimidine-3-carboxamide]	+ (Compounds with a Cisplatin sensitization value >0.2 μM but <5 μM are marked with “+.”)
CN1CCC[C@H]1COc1ccncc1NC(=O)c1c(N)nn2cc(Cl)cnc12 [I-O-50, (S)-2-amino-6-chloro-N-(4-((1-methylpyrrolidin-2-yl)methoxy)pyridin-3-yl)pyrazolo[1,5-a]pyrimidine-3-carboxamide]	+ (Compounds with a Cisplatin sensitization value >0.2 μM but <5 μM are marked with “+.”)
CN(C)CCCOc1ccncc1NC(=O)c1c(N)nn2cc(Cl)cnc12 [I-O-52, 2-amino-6-chloro-N-(4-(3-(dimethylamino)propoxy)pyridin-3-yl)pyrazolo[1,5-a]pyrimidine-3-carboxamide]	+ (Compounds with a Cisplatin sensitization value >0.2 μM but <5 μM are marked with “+.”)
Nc1nn2cc(Cl)cnc2c1C(=O)Nc1cnccc1OCCCO [I-O-53, 2-amino-6-chloro-N-(4-(3-hydroxypropoxy)pyridin-3-yl)pyrazolo[1,5-a]pyrimidine-3-carboxamide]	+++ (Compounds with a Cisplatin sensitization value of <0.02 μM are marked with “+++.”)
COCCOc1ccncc1NC(=O)c1c(N)nn2cc(Cl)cnc12 [I-O-55, 2-amino-6-chloro-N-(4-(2-methoxyethoxy)pyridin-3-yl)pyrazolo[1,5-a]pyrimidine-3-carboxamide]	++ (Compounds with a Cisplatin sensitization value >0.02 μM but <0.2 μM are marked with “++.”)
CCOc1ccncc1NC(=O)c1c(N)nn2cc(Cl)cnc12 [I-O-56, 2-amino-6-chloro-N-(4-ethoxypyridin-3-yl)pyrazolo[1,5-a]pyrimidine-3-carboxamide]	+++ (Compounds with a Cisplatin sensitization value of <0.02 μM are marked with “+++.”)
COc1ccncc1NC(=O)c1c(N)nn2cc(Cl)cnc12 [I-O-57, 2-amino-6-chloro-N-(4-methoxypyridin-3-yl)pyrazolo[1,5-a]pyrimidine-3-carboxamide]	+++ (Compounds with a Cisplatin sensitization value of <0.02 μM are marked with “+++.”)
Nc1nn2cc(Cl)cnc2c1C(=O)Nc1cnccc1O[C@H]1CCOC1 [I-O-58, (S)-2-amino-6-chloro-N-(4-((tetrahydrofuran-3-yl)oxy)pyridin-3-yl)pyrazolo[1,5-a]pyrimidine-3-carboxamide]	+++ (Compounds with a Cisplatin sensitization value of <0.02 μM are marked with “+++.”)
Nc1nn2cc(Cl)cnc2c1C(=O)Nc1cnccc1OCC(F)(F)F [I-O-59, 2-amino-6-chloro-N-(4-(2,2,2-trifluoroethoxy)pyridin-3-yl)pyrazolo[1,5-a]pyrimidine-3-carboxamide]	+++ (Compounds with a Cisplatin sensitization value of <0.02 μM are marked with “+++.”)
Nc1nn2cc(Cl)cnc2c1C(=O)Nc1cnccc1OCCN1CCOCC1 [I-O-60, 2-amino-6-chloro-N-(4-(2-morpholinoethoxy)pyridin-3-yl)pyrazolo[1,5-a]pyrimidine-3-carboxamide]	++ (Compounds with a Cisplatin sensitization value >0.02 μM but <0.2 μM are marked with “++.”)
Nc1nn2cc(Cl)cnc2c1C(=O)Nc1cnccc1OC1CCOCC1 [I-O-61, 2-amino-6-chloro-N-(4-((tetrahydro-2H-pyran-4-yl)oxy)pyridin-3-yl)pyrazolo[1,5-a]pyrimidine-3-carboxamide]	+++ (Compounds with a Cisplatin sensitization value of <0.02 μM are marked with “+++.”)
Nc1nn2cc(Cl)cnc2c1C(=O)Nc1cnccc1OC1CN2CCC1CC2 (centres unmarked) [I-O-62, 2-amino-6-chloro-N-(4-(quinuclidin-3-yloxy)pyridin-3-yl)pyrazolo[1,5-a]pyrimidine-3-carboxamide]	+++ (Compounds with a Cisplatin sensitization value of <0.02 μM are marked with “+++.”)
CN1CC[C@@H](Oc2ccncc2NC(=O)c2c(N)nn3cc(Cl)cnc23)C1 [I-O-63, (R)-2-amino-6-chloro-N-(4-((1-methylpyrrolidin-3-yl)oxy)pyridin-3-yl)pyrazolo[1,5-a]pyrimidine-3-carboxamide]	++ (Compounds with a Cisplatin sensitization value >0.02 μM but <0.2 μM are marked with “++.”)
CN1CCC(Oc2ccncc2NC(=O)c2c(N)nn3cc(Cl)cnc23)CC1 [I-O-64, 2-amino-6-chloro-N-(4-((1-methylpiperidin-4-yl)oxy)pyridin-3-yl)pyrazolo[1,5-a]pyrimidine-3-carboxamide]	+++ (Compounds with a Cisplatin sensitization value of <0.02 μM are marked with “+++.”)
Nc1nn2cc(Cl)cnc2c1C(=O)Nc1cnccc1OC1CCCOC1 (centres unmarked) [I-O-65, 2-amino-6-chloro-N-(4-((tetrahydro-2H-pyran-3-yl)oxy)pyridin-3-yl)pyrazolo[1,5-a]pyrimidine-3-carboxamide]	+++ (Compounds with a Cisplatin sensitization value of <0.02 μM are marked with “+++.”)
Nc1nn2cc(Cl)cnc2c1C(=O)Nc1cnccc1OCCO [I-O-66, 2-amino-6-chloro-N-(4-(2-hydroxyethoxy)pyridin-3-yl)pyrazolo[1,5-a]pyrimidine-3-carboxamide]	+ (Compounds with a Cisplatin sensitization value >0.2 μM but <5 μM are marked with “+.”)
COCCN1CCC[C@H](Oc2ccncc2NC(=O)c2c(N)nn3cc(Cl)cnc23)C1 [I-O-67, (S)-2-amino-6-chloro-N-(4-((1-(2-methoxyethyl)piperidin-3-yl)oxy)pyridin-3-yl)pyrazolo[1,5-a]pyrimidine-3-carboxamide]	++ (Compounds with a Cisplatin sensitization value >0.02 μM but <0.2 μM are marked with “++.”)
CN(C)CCOc1cc(Cl)ncc1NC(=O)c1c(N)nn2cc(Cl)cnc12 [I-O-68, 2-amino-6-chloro-N-(6-chloro-4-(2-(dimethylamino)ethoxy)pyridin-3-yl)pyrazolo[1,5-a]pyrimidine-3-carboxamide]	++ (Compounds with a Cisplatin sensitization value >0.02 μM but <0.2 μM are marked with “++.”)
Nc1nn2cc(Cl)cnc2c1C(=O)Nc1cnccc1Oc1cccnc1 [I-O-70, 2-amino-6-chloro-N-(4-(pyridin-3-yloxy)pyridin-3-yl)pyrazolo[1,5-a]pyrimidine-3-carboxamide]	+++ (Compounds with a Cisplatin sensitization value of <0.02 μM are marked with “+++.”)
CN(C)CCOc1cc(C(F)(F)F)ncc1NC(=O)c1c(N)nn2cc(Cl)cnc12 [I-O-71, 2-amino-6-chloro-N-(4-(2-(dimethylamino)ethoxy)-6-(trifluoromethyl)pyridin-3-yl)pyrazolo[1,5-a]pyrimidine-3-carboxamide]	+ (Compounds with a Cisplatin sensitization value >0.2 μM but <5 μM are marked with “+.”)
Nc1nn2cc(Cl)cnc2c1C(=O)Nc1cnccc1OC1CC2(CNC2)C1 [I-O-72, N-(4-(2-azaspiro[3.3]heptan-6-yloxy)pyridin-3-yl)-2-amino-6-chloropyrazolo[1,5-a]pyrimidine-3-carboxamide]	+ (Compounds with a Cisplatin sensitization value >0.2 μM but <5 μM are marked with “+.”)
Nc1nn2cc(Cl)cnc2c1C(=O)Nc1cnccc1OC1CNC1 [I-O-73, 2-amino-N-(4-(azetidin-3-yloxy)pyridin-3-yl)-6-chloropyrazolo[1,5-a]pyrimidine-3-carboxamide]	+ (Compounds with a Cisplatin sensitization value >0.2 μM but <5 μM are marked with “+.”)
Nc1nn2cc(Cl)cnc2c1C(=O)Nc1cnccc1O[C@H]1CCCNC1 [I-O-74, (S)-2-amino-6-chloro-N-(4-(piperidin-3-yloxy)pyridin-3-yl)pyrazolo[1,5-a]pyrimidine-3-carboxamide]	++ (Compounds with a Cisplatin sensitization value >0.02 μM but <0.2 μM are marked with “++.”)
Nc1nn2cc(Cl)cnc2c1C(=O)Nc1cnccc1OC1CCCNC1 (centres unmarked) [I-O-75, 2-amino-6-chloro-N-(4-(piperidin-3-yloxy)pyridin-3-yl)pyrazolo[1,5-a]pyrimidine-3-carboxamide]	++ (Compounds with a Cisplatin sensitization value >0.02 μM but <0.2 μM are marked with “++.”)
